The values below come from ChEMBL document CHEMBL1156394, “Low-density lipoprotein-antioxidant constituents of Saururus chinensis” (J Nat Prod, 2001).

Structures are written as SMILES.

For this assay, the system named is Plasma. Briefly: Antioxidant activity assessed as inhibition of LDL oxidation in human plasma. The class given is functional, cell-free.
By IC50 is commonly meant the concentration that gives 50% inhibition. For the molecule `C/C=C/c1ccc(O[C@@H](C)[C@@H](O)c2ccc(O)c(OC)c2)c(OC)c1` [MACHILIN D], the IC50 amounted to 2900 nM.
On to `CC(C)(Sc1cc(C(C)(C)C)c(O)c(C(C)(C)C)c1)Sc1cc(C(C)(C)C)c(O)c(C(C)(C)C)c1` [PROBUCOL], for which the IC50 was 1300 nM.
Next, `C/C=C/c1ccc(O[C@@H](C)[C@@H](O)c2ccc(OC)c(OC)c2)c(OC)c1` [VIROLIN]: 4300 nM.
